Test results: patent publication US20130137760A1, “GAMBOGIC AMINE, A SELECTIVE TRKA AGONIST WITH NEUROPROTECTIVE ACTIVITY” (EMORY UNIVERSITY, priority 2007, published 2013)

Experiments:
[1] = test system: T17 cells (TrkA stably transfected SN56 cells); assay: Cell-based apoptotic assay: protection of TrkA-expressing T17 cells from staurosporine-initiated apoptosis, MR(DEVD)2 caspase-3 dye; set-up: species or system murine; settings: 0.5 μM pre-incubation, then 1 μM STS for 9 h; compared with NGF
Description: In order to identify small molecules that mimic NGF and activate TrkA, we developed a cell-based apoptotic assay using a cell permeable fluorescent dye MR([…])2, which turns red upon caspase-3 cleavage in apoptotic cells. We utilized a murine cell line T17, which was derived from basal forebrain SN56 cells. T17 cells are TrkA stably transfected SN56 cells. The candidates selectively protecting T17 but not SN56 cells from the first round screen can then be subjected to neurite outgrowth assay for the secondary screen. The positive compounds can be analyzed for TrkA tyrosine phosphorylation, Akt and MAP kinases signaling cascade activation.
T17 cells can be cultured in 96-well plates and preincubated with 10 μM compounds for 30 min, followed by 1 μM staurosporine (STS) treatment for 9 h. MR(DEVD)2 can be introduced to the cells 1 h before examination under fluorescent microscope. The apoptotic cells are red, while live cells have no signal. […] Using the caspase-3-activated fluorescent dye as a visual assay, one can screen the gambogic amine compounds.
To compare the apoptosis inhibitory activity of various compounds, one can pre-incubate gambogic amines derivatives (0.5 μM) with T17 and SN56 cells, followed by 1 μM STS for 9 h. Quantitative analysis of the apoptosis inhibitory activities can determine whether the compounds protect SN56 cells from apoptosis.
T17 cells can be seeded in a 96-well plate at 10,000 cells/well in 100 μl complete medium. Cells can be incubated overnight, followed by 30 min pretreatment with 10 μM compounds in DMSO (10 mM stock concentration from The Spectrum Collection library). The cells can then be treated with 1 μM Staurosporine for 9 h. One h before the termination of the experiment, 10 μM MR(DEVD)2, a cell permeable caspase-3-activated fluorescent dye can be introduced. Cells can be fixed with 4% paraformaldehyde for 15 min. Cells can then be washed with PBS and incubated with 1 μg/ml of Hoechst 33342 for 10 min. Cover slides can then be washed with PBS, mounted, and examined using a fluorescence microscope.

hippocampal neurons = assay: Glutamate-triggered neuronal cell death in hippocampal neurons; format: cell-based; settings: in vitro
Protocol: To examine whether test compounds can promote neuronal survival, hippocampal neurons can be prepared, and the primary neurons pre-treated with various test compounds for a period of time, for example, 30 min, followed by 50 μM glutamate treatment for a period of time, for example, 16 h.
TrkA is highly expressed in hippocampal neurons (Culmsee et al., 2002; Kume et al., 2000; Zhang et al., 1993). […] To examine whether these compounds can promote neuronal survival, one can prepare hippocampal neurons and pre-treat the primary neurons with various gambogic amine derivatives for 30 min, followed by 50 μM glutamate treatment for 16 h.

infarct volume = assay: Transient middle cerebral artery occlusion (MCAO) stroke model, infarct volume; set-up: species or system rats; settings: rat, in vivo
Protocol: To further determine the neuroprotective potential in vivo, test compounds can be tested in a transient middle cerebral artery occlusion (MCAO) stroke model in adult male rats. After 2 h MCAO followed by reperfusion, the animals receive vehicle or test compounds (2 mg/kg) 5 min prior to the onset of reperfusion.
A representative brain slice stained with TTC 24 h after MCAO in vehicle-treated and compound-treated rats can be subjected to area and volume measurements from TTC sections to indicate whether treatments with the compound substantially reduces infarct volumes in this transient ischemic model of stroke. […]
To further determine the neuroprotective potential in vivo, the gambogic amine can be tested in a transient middle cerebral artery occlusion (MCAO) stroke model in adult male rats. […] LDF (laser-Doppler flowmetry) can be measured over the ipsilateral parietal cortex. The effects of the gambogic amine on relative CBF (cerebral blood flow) can be evaluated. After filament withdrawal (120 min), relative CBF can also be measured in the vehicle-treated group and gambogic amine-treated groups, and compared with preischemic levels.
Rats can be used in a study of focal ischemia. […] Using a SurgiVet (model V3304; Waukesha, Wis., USA) pulse oximeter, blood SpO2 can be monitored and maintained at levels 90%. […]

CC(C)=CCC[C@]1(C)C=Cc2c(O)c3c(c(CC=C(C)C)c2O1)O[C@]12C(=C[C@@H]4CC1C(C)(C)O[C@@]2(C/C=C(/C)C(N)=O)C4=O)C3=O [gambogic amide]
apoptosis inhibitory activity in T17 cells [1]: strongly suppress apoptosis in T17 cells with protective activities even stronger than NGF
protection of hippocampal neurons from glutamate-triggered neuronal cell death (hippocampal neurons): potent neurotrophic effects
decrease of stroke-induced infarct volume (infarct volume): effectively decrease
